The nature of series [1]: Half life in Sprague-Dawley rat at 10 mg/kg, po. It counts as ADME, organism-based. On the set-up: dose 10 mg/kg, route oral. As to conditions: in vivo.
Series [2] in a line: Cmax in Sprague-Dawley rat at 10 mg/kg, iv. On the set-up: dose 10 mg/kg, route intravenous. The conditions noted are these: in vivo. It counts as ADME, organism-based.
A further series relates to Rattus norvegicus. Description: AUC (0 to infinity) in Sprague-Dawley rat at 10 mg/kg, iv. It counts as ADME, organism-based, Plasma. On the set-up: time infinity, dose 10 mg/kg, route intravenous. As to conditions: in vivo.
Series [3] in a line: Volume of distribution in Sprague-Dawley rat at 10 mg/kg, iv. As to conditions: in vivo. It counts as ADME, organism-based. On the set-up: dose 10 mg/kg, route intravenous.
A short description of series [4]: Metabolic stability in rat liver microsomes assessed as compound remaining after 30 mins. The conditions noted are these: read-out: Stability. It counts as ADME, Microsome. In general terms: Liver microsomes are a subcellular fraction often used to study metabolism.
A short description of series [5]: Half life in mouse at 10 mg/kg, po. It counts as ADME, organism-based. On the set-up: dose 10 mg/kg, route oral. As to conditions: in vivo.
A short description of series [6]: Cmax in mouse at 10 mg/kg, po. Type of series: ADME, organism-based. On the set-up: dose 10 mg/kg, route oral. As to conditions: in vivo.
Series [7] can be described thus: AUC (0 to infinity) in mouse at 10 mg/kg, po. It counts as ADME, organism-based. On the set-up: time infinity, dose 10 mg/kg, route oral. The conditions noted are these: plasma.
Series [8] in a line: Oral bioavailability in mouse at 10 mg/kg. Type of series: ADME, organism-based. As to conditions: in vivo.
Series [9] is described as follows: Volume of distribution in mouse at 10 mg/kg, iv. Type of series: ADME, organism-based. On the set-up: dose 10 mg/kg, route intravenous. The conditions noted are these: in vivo.
The nature of series [10]: Clearance in mouse at 10 mg/kg, iv. It counts as ADME, organism-based. On the set-up: dose 10 mg/kg, route intravenous. As to conditions: in vivo.
Series [11] has as its target T1, Leukotriene A-4 hydrolase (Homo sapiens, UniProt P09960).
T1 sequence (P09960 whole entry): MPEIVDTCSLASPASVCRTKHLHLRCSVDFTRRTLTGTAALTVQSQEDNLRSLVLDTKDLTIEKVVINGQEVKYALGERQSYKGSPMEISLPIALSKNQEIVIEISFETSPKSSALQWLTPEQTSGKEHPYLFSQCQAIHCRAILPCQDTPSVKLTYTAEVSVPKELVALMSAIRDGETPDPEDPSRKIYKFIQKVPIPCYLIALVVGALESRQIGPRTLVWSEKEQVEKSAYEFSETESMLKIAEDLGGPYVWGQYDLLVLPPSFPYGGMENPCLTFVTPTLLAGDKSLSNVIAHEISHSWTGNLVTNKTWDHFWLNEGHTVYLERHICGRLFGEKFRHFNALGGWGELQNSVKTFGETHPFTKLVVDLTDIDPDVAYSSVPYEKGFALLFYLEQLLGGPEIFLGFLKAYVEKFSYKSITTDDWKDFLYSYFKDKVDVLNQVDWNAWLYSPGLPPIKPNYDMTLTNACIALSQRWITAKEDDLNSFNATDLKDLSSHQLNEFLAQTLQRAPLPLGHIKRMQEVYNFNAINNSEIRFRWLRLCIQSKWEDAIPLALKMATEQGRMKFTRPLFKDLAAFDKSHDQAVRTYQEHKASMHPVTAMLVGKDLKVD
Description: Inhibition of human recombinant LTA4H hydrolysis assessed as inhibition of LTB4 formation by LC-MS/MS

For series [12], the target named is T1, Leukotriene A-4 hydrolase. This is another data set of the same source.
Description: Inhibition of human LTA4H hydrolysis assessed as inhibition of Ca2+ ionophore-stimulated LTB4 formation in human whole blood by ELISA
Series [13] deals with Aminopeptidase N (Homo sapiens) (UniProt P15144). In words: Inhibition of APN at 10 uM.
For series [14], the target named is Endoplasmic reticulum aminopeptidase 2 (Homo sapiens) (UniProt Q6P179). In words: Inhibition of LRAP at 10 uM.
Series [15] addresses Endoplasmic reticulum aminopeptidase 1 (Homo sapiens) (UniProt Q9NZ08). Description: Inhibition of PILS at 10 uM.
The target in series [16] is Glutamyl aminopeptidase (Homo sapiens) (UniProt Q07075). In words: Inhibition of APA at 10 uM.
For series [17], the target named is Voltage-gated inwardly rectifying potassium channel KCNH2 (Homo sapiens, UniProt Q12809). In words: Inhibition of human ERG channel.
Another series has as its target T2, CYP1A2 (Homo sapiens, UniProt P05177).
T2 sequence (P05177 whole entry): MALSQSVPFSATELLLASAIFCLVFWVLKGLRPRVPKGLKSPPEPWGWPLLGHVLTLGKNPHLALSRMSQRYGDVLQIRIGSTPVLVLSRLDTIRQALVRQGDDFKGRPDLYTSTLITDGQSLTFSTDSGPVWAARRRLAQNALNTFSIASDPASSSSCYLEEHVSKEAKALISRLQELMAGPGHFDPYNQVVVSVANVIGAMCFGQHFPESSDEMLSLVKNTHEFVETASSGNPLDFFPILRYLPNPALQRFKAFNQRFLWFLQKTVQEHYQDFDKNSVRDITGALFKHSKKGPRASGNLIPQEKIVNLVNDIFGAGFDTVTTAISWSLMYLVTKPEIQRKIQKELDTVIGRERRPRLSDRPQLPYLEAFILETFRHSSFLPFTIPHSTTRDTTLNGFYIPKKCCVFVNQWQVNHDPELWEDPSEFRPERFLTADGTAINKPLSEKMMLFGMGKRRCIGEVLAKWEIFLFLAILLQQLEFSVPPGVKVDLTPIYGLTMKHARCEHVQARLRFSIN
Description: Inhibition of human CYP1A2 at 10 uM. It counts as ADME.

A further series concerns the target CYP2C9 (Homo sapiens, UniProt P11712). In words: Inhibition of human CYP2C9 at 10 uM. It counts as ADME.
In the next series the target is CYP2C19 (Homo sapiens, UniProt P33261). Description: Inhibition of human CYP2C19 at 10 uM. Type of series: ADME.
The target of the next series is Cytochrome P450 2D6 (Homo sapiens, UniProt P10635). In words: Inhibition of CYP2D6. It counts as ADME.
For a further series, the target named is CYP3A4 (Homo sapiens, UniProt P08684). Description: Inhibition of human CYP3A4 at 10 uM. Type of series: ADME.
The nature of series [18]: Oral bioavailability in Sprague-Dawley rat at 10 mg/kg. It counts as ADME, organism-based. As to conditions: in vivo.
The nature of series [19]: Clearance in Sprague-Dawley rat at 10 mg/kg, iv. Type of series: ADME, organism-based. On the set-up: dose 10 mg/kg, route intravenous. As to conditions: in vivo.
The nature of series [20]: Half life in dog at 10 mg/kg, po. Type of series: ADME, organism-based, Canis lupus familiaris. On the set-up: dose 10 mg/kg, route oral. The conditions noted are these: in vivo.
A short description of series [21]: Cmax in dog at 10 mg/kg, po. Type of series: ADME, organism-based, Canis lupus familiaris. On the set-up: dose 10 mg/kg, route oral. The conditions noted are these: in vivo.
Series [22] can be described thus: AUC (0 to infinity) in dog at 10 mg/kg, po. Type of series: ADME, organism-based, Canis lupus familiaris. On the set-up: time infinity, dose 10 mg/kg, route oral. The conditions noted are these: plasma.
Series [23] is described as follows: Volume of distribution in dog at 10 mg/kg, iv. Type of series: ADME, organism-based, Canis lupus familiaris. On the set-up: dose 10 mg/kg, route intravenous. As to conditions: in vivo.
Series [24] can be described thus: Clearance in dog at 10 mg/kg, iv. On the set-up: dose 10 mg/kg, route intravenous. Type of series: ADME, organism-based, Canis lupus familiaris. As to conditions: in vivo.
A short description of series [25]: Half life in monkey at 10 mg/kg, po. Type of series: ADME, organism-based, Macaca mulatta. On the set-up: dose 10 mg/kg, route oral. The conditions noted are these: rhesus monkey, in vivo.
The nature of series [26]: Cmax in monkey at 10 mg/kg, po. It counts as ADME, organism-based, Macaca mulatta. On the set-up: dose 10 mg/kg, route oral. As to conditions: rhesus monkey, in vivo.
Series [27] is described as follows: AUC (0 to infinity) in monkey at 10 mg/kg, po. It counts as ADME, organism-based, Macaca mulatta. On the set-up: time infinity, dose 10 mg/kg, route oral. The conditions noted are these: rhesus monkey, plasma.
Another series has as its system Rhesus monkey. Description: Oral bioavailability in monkey at 10 mg/kg. Type of series: ADME, organism-based, Macaca mulatta. The conditions noted are these: in vivo.
Series [28] is described as follows: Volume of distribution in monkey at 10 mg/kg, iv. It counts as ADME, organism-based, Macaca mulatta. On the set-up: dose 10 mg/kg, route intravenous. The conditions noted are these: rhesus monkey, in vivo.
Series [29] can be described thus: Clearance in monkey at 10 mg/kg, iv. Type of series: ADME, organism-based, Macaca mulatta. On the set-up: dose 10 mg/kg, route intravenous. The conditions noted are these: rhesus monkey, in vivo.
The nature of series [30]: Cmax in Sprague-Dawley rat at 10 mg/kg, po. The conditions noted are these: in vivo. On the set-up: dose 10 mg/kg, route oral. It counts as ADME, organism-based.
Series [31] is described as follows: AUC (0 to infinity) in Sprague-Dawley rat at 10 mg/kg, po. As to conditions: plasma. It counts as ADME, organism-based. On the set-up: time infinity, dose 10 mg/kg, route oral.
The nature of series [32]: Aqueous solubility at pH 6.18. Type of series: physicochemical. As to conditions: buffer.
For series [33], the target named is Xaa-Pro aminopeptidase 1 (Homo sapiens) (UniProt Q9NQW7). In words: Inhibition of APP1 at 10 uM.

Sequence of Endoplasmic reticulum aminopeptidase 2 (Homo sapiens) (Q6P179 whole entry): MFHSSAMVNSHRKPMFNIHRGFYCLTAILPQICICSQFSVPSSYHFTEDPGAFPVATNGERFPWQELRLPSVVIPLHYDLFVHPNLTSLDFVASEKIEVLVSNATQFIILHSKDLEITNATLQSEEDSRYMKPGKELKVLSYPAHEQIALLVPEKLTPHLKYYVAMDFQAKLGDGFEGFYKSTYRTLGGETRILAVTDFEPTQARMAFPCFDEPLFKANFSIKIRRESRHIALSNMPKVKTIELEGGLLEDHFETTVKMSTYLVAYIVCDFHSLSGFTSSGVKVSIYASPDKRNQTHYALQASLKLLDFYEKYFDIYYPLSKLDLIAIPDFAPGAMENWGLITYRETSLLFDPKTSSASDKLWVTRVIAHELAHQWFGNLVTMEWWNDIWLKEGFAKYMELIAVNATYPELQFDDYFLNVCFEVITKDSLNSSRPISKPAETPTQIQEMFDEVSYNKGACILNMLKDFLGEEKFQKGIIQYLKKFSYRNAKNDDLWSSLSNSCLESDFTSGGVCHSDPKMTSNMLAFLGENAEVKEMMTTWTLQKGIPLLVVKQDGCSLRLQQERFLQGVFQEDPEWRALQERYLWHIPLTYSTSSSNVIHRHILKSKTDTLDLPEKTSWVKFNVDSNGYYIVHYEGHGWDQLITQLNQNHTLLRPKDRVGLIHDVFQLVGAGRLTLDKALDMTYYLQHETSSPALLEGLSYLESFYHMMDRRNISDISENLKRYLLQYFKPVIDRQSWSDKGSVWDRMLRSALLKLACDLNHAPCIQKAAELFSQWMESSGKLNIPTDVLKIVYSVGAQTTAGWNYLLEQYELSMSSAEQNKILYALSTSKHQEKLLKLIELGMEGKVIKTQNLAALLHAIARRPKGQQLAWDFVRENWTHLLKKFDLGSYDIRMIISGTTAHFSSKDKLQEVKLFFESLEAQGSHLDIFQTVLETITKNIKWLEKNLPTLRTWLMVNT
Sequence of CYP3A4 (P08684 whole entry): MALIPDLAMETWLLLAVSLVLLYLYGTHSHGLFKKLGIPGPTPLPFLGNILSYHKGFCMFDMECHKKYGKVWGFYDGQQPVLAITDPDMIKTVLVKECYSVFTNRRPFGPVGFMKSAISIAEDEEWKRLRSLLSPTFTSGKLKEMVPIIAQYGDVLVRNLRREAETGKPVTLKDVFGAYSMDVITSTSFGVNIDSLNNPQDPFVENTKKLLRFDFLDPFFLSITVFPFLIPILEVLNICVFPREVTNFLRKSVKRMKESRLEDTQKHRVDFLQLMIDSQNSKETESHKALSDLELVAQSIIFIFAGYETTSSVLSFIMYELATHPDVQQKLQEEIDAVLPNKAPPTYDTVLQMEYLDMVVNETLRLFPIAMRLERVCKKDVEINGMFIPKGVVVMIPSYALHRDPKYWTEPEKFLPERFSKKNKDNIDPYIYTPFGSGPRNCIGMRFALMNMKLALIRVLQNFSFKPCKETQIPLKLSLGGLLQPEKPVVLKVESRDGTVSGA
Sequence of CYP2C19 (P33261 whole entry): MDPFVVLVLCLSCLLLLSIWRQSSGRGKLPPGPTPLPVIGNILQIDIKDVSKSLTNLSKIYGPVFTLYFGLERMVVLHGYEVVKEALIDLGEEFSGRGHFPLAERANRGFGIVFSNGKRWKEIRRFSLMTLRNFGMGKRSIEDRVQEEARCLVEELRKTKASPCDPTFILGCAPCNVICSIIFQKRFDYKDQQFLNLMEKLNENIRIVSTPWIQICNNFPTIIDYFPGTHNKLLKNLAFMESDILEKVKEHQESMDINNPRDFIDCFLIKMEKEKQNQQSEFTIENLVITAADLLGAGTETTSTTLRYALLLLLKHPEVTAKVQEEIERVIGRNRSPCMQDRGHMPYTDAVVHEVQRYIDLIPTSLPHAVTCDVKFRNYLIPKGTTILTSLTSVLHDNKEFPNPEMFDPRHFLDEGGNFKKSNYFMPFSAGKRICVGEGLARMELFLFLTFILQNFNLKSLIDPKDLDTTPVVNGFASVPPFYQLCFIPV
Sequence of Cytochrome P450 2D6 (P10635 whole entry): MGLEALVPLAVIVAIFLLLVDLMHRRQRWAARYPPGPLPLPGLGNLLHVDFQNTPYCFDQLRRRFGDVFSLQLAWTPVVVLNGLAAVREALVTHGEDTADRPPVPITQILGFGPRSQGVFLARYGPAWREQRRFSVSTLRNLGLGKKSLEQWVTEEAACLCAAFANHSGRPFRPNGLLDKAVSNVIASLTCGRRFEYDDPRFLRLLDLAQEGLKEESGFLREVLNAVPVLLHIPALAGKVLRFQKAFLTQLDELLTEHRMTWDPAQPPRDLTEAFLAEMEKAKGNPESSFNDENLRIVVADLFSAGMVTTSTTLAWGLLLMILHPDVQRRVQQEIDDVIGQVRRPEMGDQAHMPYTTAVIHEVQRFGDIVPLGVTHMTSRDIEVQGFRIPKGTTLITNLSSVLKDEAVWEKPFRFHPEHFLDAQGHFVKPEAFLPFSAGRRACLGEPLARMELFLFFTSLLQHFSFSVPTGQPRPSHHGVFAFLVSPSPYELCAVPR
Sequence of Endoplasmic reticulum aminopeptidase 1 (Homo sapiens) (Q9NZ08 whole entry): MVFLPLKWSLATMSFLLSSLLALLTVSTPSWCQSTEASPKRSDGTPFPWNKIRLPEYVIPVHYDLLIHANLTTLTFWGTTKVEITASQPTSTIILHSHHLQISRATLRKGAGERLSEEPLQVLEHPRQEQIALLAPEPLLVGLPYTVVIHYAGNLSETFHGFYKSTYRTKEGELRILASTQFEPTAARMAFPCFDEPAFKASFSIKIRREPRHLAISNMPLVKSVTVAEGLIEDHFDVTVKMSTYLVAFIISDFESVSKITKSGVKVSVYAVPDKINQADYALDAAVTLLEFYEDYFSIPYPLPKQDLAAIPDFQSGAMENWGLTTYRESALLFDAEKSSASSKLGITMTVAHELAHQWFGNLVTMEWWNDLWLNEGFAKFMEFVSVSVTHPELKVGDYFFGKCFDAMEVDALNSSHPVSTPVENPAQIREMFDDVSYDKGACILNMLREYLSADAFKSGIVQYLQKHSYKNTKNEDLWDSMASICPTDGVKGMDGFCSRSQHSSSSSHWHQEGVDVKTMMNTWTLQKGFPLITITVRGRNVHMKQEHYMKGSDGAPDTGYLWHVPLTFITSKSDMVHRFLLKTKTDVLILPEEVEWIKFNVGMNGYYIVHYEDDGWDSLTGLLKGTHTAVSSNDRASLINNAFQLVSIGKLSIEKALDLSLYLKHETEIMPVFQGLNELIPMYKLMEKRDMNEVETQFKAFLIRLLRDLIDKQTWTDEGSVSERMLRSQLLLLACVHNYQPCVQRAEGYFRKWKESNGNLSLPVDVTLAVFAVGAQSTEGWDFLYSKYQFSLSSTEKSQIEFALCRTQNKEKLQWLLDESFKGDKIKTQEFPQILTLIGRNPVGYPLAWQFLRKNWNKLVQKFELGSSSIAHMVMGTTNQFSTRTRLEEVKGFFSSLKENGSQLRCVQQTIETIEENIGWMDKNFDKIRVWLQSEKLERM
Sequence of Voltage-gated inwardly rectifying potassium channel KCNH2 (Q12809 whole entry): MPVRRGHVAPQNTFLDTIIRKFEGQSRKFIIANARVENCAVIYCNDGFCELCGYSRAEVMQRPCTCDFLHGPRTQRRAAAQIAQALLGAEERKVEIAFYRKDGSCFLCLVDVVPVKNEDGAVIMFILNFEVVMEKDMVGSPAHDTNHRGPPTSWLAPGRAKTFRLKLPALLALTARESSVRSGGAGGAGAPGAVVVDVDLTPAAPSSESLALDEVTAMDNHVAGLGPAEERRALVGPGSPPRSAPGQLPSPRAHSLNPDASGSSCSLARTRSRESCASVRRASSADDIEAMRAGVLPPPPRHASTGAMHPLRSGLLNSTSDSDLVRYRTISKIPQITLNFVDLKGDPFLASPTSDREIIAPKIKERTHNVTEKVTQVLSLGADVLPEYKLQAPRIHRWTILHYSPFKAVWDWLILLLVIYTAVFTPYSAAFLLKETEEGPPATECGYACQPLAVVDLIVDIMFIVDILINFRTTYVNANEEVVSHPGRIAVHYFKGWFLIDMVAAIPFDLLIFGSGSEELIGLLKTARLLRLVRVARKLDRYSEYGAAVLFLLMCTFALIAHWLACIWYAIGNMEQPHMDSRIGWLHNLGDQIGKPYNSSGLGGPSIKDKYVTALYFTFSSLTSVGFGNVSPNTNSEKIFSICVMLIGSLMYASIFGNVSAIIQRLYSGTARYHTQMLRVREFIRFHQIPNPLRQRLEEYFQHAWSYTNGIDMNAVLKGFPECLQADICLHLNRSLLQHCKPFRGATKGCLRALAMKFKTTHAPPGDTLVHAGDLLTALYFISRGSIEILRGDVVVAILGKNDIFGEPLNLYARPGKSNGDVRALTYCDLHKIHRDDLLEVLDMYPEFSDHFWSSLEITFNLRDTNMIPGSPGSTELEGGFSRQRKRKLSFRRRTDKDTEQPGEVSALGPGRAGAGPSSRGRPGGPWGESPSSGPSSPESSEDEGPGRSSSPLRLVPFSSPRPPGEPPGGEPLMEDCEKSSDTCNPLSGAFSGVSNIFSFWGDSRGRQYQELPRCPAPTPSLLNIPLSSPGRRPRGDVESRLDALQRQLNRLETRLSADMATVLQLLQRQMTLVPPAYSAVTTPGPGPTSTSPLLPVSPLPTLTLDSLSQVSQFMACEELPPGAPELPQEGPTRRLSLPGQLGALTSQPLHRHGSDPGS
Sequence of CYP2C9 (P11712 whole entry): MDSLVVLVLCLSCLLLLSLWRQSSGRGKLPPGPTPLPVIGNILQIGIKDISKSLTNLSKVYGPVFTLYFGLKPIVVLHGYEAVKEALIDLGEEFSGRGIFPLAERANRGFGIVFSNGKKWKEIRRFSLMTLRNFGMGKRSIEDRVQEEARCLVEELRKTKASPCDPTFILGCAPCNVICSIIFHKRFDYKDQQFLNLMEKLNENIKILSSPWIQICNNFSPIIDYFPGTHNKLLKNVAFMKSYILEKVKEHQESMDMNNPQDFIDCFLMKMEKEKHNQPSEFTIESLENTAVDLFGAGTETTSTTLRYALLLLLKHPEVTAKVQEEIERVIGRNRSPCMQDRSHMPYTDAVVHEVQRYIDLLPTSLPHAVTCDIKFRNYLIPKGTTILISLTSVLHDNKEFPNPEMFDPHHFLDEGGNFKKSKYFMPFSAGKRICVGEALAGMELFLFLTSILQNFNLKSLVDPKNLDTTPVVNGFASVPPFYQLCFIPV

A word on the half-life: it is the time needed for the level to fall by half in the phase considered. For orientation: Cmax means the highest concentration seen after dosing. The term AUC denotes the area under the concentration-time curve, a measure of exposure. For orientation: Vd means a proportionality between amount in the body and measured concentration, not a real space. In [1], `c1ccc(Cc2ccc(OC[C@H]3CCCN3)cc2)cc1` gave a half-life of 0.67 h. The same compound displayed a Cmax in series [2] of 1.46 µM. The compound further displayed an AUC in the series with Rattus norvegicus of 471 ng·h/mL. The Vd in series [3] is 6.12 L/kg. For the same compound, in [4], the remaining at 0.5 h was determined as 10.5%.
Usually AUC(0-inf) stands for the area under the concentration-time curve extrapolated to infinity. One may read the bioavailability as the share of a dose that reaches the circulation, judged against a reference dose that is usually intravenous. For orientation: clearance means the volume of plasma or blood freed of the substance per unit of time. As usually defined, the IC50 is the concentration that inhibits the measured activity by half. In turn, `Clc1ccc(Oc2ccc(OC[C@H]3CCCN3)cc2)cc1` showed a half-life in series [5] of 3.59 h. This compound also returned a Cmax in series [6] of 1.02 µM. The AUC(0-inf) in series [7] was 2360 ng·h/mL. Also, in series [8], the bioavailability stood at 85%. Moreover, the distribution volume (Vd) in series [9] was 6.32 L/kg. In series [10], this compound showed a clearance of 61 mL/min/kg. Further, the remaining at 0.5 h in series [4] is 86.6%. The IC50 amounted to 30 nM in series [11] and 533 nM in [12].
Compound `c1ccc(Cc2ccc(OCCc3ccncc3)cc2)cc1` gave an IC50 in series [11] of 8700 nM.
In [11], `Ic1ccc(Oc2ccc(N3CCNCC3)cc2)cc1` displayed an IC50 of 340 nM.
As a reminder, the inhibition is the share of the control response that was lost under treatment. For orientation: solubility means how much of the substance goes into solution per volume. For `O=C(O)CCCN1CCC[C@H]1COc1ccc(Oc2ccc(Cl)cc2)cc1`, the inhibition in [13], in series [14], in series [15], in series [16] and in series [33] was > 50% throughout. In addition, the “inhibition (INH)” value was > 50% in [17] and < 50% against Cytochrome P450 2D6. Also, the inhibition at 10 µM against CYP1A2, at CYP2C9, at CYP2C19 and against CYP3A4 was < 50% in each case. Also, the half-life was 2.57 h in series [1], 4.02 h in [20] and 5.54 h in series [25]. The bioavailability in [18] is 87%. The Vd was determined as 2.35 L/kg in series [3], 1.56 L/kg in series [23] and 2.07 L/kg in series [28]. Moreover, the clearance in [19] worked out at 11 mL/min/kg; in series [24], 7.6 mL/min/kg; in series [29], 6 mL/min/kg. For the same compound, the Cmax in series [21] worked out at 19.3 µM; in series [26], 18.9 µM; in [30] it was 4.8 µM. For the same compound, the results for the AUC(0-inf) in series [22], in series [27] and in series [31] were 56000 ng·h/mL, 52400 ng·h/mL and 13000 ng·h/mL, respectively. In the series on Rhesus monkey, this compound returned an F of 186%. For the same compound, the remaining at 0.5 h in series [4] came out at 95.2%. Moreover, the solubility in series [32] is > 30 mg/mL.

The values above are taken from ChEMBL document CHEMBL1156785, “Discovery of 4-[(2S)-2-{[4-(4-chlorophenoxy)phenoxy]methyl}-1-pyrrolidinyl]butanoic acid (DG-051) as a novel leukotriene A4 hydrolase inhibitor of leukotriene B4 biosynthesis” (J Med Chem, 2010).
